Patent US20250236617A1, “BICYCLIC TETRAHYDROTHIAZEPINE DERIVATIVES” (Hoffmann-La Roche Inc., priority 2022, published 2025)

Experiments:
primary human T-cells [1] = assay: T-cell proliferation assay (CellTiter-Glo); assay type: cell-based; settings: CD3 condition; for Emax proliferation (% activation): 5 days, 20 μM reference compound A1 = 100%; for EC50: proliferation after 5 days, CellTiter-Glo, read-out: Tcell Proliferation CD3 EC50
primary human T-cells [2] = assay: IL2 secretion measurements in CD3-stimulated T-cells; assay type: cell-based; settings: CD3 condition; for Emax IL2 (% activation): 24 hours, 20 μM reference compound A1 = 100%; for EC50: IL2 secretion after 24 hours, read-out: Tcell IL2 CD3 EC50
How it was run: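 Expanded primary human T-cells (100 k/well, RPMI + 5% human serum) on plate-bound anti-CD3 (donor-titrated) or PBS counter-screen wells, 5–6 pt dose response from 20 or 10 μM top (dilution factor 3.333), 0.2% DMSO final. IL-2 in 24 h supernatant by ProQuantum immunoassay or ELISA. Normalised to DMSO (0%) and 20 μM reference A1 (100%); EC50 and Emax from sigmoidal fit.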

[3] = biological target: DGKalpha (hDGKalpha(1-735)-N-His) (Homo sapiens (Human), UniProt P23743); assay: In vitro DGK inhibition assay, ADP-Glo (in house), DGKalpha; assay type: biochemical; settings: DLG liposomes, 25 μM ATP, 4 nM enzyme, 1 hour reaction
Procedure: (§1) DGK α and ζ kinases use ATP to phosphorylate the substrate 1,2-dilauroyl-sn-glycerol (DLG, incorporated in the liposomes). ATP is converted to ADP as a result of this enzymatic reaction.
(§2) After the kinase reaction, an ATP-depletion reagent is added to terminate the kinase reaction and deplete any remaining ATP, leaving only ADP. Second, a detection reagent is added to simultaneously convert ADP to ATP and allow the newly synthesized ATP to be converted to light using a coupled luciferase/luciferin reaction.
(§3) Purification of both enzymes was performed as previously described by Takahashi et al., PeerJ, 2018 (Takahashi, D.; Sakane, F. Expression and purification of human diacylglycerol kinase alpha from baculovirus-infected insect cells for structural studies. PeerJ 2018, 6, No. e5449).
(§4) A concentrated liposome solution was prepared in assay buffer without DTT and BSA: 2 mM of DLG in 21 mM of total liposome (2 mM DLG/8 mM PS/11 mM PC). The reaction mixtures contain the assay buffer with a final DLG concentration of 125 uM ATP concentrations of 25 μM (for DGKA assay) or 50 μM (for DGKZ assay). The reactions were started by addition of DGK α and ζ kinases at 4 nM and 2 nM final concentrations, respectively. After 1 hour reaction, the amount of ADP formed was detected with the ADP-Glo kinase assay (Promega) according to the manufacturer instructions. Compounds were added in 11-points dose response, starting at […], 1:3 dilutions, with a final DMSO concentration of 2%. The multidrop combi was used as a liquid handler and luminescence was read with 0.5 s by the envision reader (PE).

[4] = biological target: DGKzeta (hDGKzeta(1-928)-N-His) (Homo sapiens (Human), UniProt Q13574); assay: In vitro DGK inhibition assay, ADP-Glo (in house), DGKzeta; assay type: biochemical; settings: DLG liposomes, 50 μM ATP, 2 nM enzyme, 1 hour reaction
Procedure: as §1, §2, §3, §4

Sequence of DGKalpha (hDGKalpha(1-735)-N-His) (P23743 whole entry): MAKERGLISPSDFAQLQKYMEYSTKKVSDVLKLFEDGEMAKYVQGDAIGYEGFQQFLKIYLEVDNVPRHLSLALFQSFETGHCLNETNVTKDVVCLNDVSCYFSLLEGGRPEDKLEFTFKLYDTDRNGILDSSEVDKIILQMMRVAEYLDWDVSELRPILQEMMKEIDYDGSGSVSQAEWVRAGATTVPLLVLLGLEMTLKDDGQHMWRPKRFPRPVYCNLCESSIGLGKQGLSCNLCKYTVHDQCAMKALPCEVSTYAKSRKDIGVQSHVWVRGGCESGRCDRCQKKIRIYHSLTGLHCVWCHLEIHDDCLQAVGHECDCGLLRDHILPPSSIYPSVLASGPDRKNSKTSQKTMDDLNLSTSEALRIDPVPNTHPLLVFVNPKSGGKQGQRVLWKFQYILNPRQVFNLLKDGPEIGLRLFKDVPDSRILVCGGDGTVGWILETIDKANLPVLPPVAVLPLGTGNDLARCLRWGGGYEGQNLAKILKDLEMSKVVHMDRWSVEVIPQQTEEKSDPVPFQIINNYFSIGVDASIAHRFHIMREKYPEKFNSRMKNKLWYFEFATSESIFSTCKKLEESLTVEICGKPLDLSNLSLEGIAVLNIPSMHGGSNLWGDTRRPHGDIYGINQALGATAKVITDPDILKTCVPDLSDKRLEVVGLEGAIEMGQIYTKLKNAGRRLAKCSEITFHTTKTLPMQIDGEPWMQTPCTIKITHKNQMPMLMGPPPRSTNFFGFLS
Sequence of DGKzeta (hDGKzeta(1-928)-N-His) (Q13574 whole entry): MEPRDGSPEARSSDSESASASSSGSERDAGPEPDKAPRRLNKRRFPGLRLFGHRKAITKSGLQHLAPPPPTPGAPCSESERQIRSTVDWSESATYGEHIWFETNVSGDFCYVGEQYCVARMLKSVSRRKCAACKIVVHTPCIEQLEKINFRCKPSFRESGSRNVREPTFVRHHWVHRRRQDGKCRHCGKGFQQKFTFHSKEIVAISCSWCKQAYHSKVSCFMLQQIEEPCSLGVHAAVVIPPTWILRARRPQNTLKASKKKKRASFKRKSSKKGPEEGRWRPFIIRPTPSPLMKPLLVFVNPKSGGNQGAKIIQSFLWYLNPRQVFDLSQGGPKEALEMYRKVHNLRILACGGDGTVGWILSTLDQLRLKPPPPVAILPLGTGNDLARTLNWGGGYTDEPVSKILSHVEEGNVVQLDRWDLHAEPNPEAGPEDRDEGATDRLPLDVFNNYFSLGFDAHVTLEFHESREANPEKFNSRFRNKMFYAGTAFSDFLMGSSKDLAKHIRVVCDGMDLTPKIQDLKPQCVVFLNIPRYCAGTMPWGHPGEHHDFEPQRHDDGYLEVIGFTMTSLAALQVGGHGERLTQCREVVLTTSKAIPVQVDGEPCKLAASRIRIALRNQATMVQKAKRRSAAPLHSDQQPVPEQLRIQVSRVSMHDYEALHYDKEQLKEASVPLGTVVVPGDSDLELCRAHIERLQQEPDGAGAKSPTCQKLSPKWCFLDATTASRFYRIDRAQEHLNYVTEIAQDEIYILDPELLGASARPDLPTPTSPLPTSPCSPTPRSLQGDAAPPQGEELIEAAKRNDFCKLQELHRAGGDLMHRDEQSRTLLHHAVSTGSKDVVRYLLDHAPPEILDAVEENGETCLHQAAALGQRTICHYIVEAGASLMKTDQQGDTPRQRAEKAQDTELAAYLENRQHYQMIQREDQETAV

| EC50 (primary human T-cells [2]; Homo sapiens, T-cell) | IC50 [3] | IC50 [4] | EC50 (primary human T-cells [2]) | Structure (SMILES) | Emax proliferation (% activation) (primary human T-cells [1]) | EC50 (primary human T-cells [1]; Homo sapiens, T-cell, 120 h) | Emax IL2 (% activation) (primary human T-cells [2]) | EC50 (primary human T-cells [1]) |
| --- | --- | --- | --- | --- | --- | --- | --- | --- |
| 2230 nM | 22200 nM | 20000 nM |  | N[C@H]1CS(=O)(=O)c2cc(F)c(-c3cnnc(OCC(F)(F)F)c3)cc2N(Cc2ccc(-c3noc(C(F)(F)F)n3)cc2)C1=O [Example 33, (3R)-3-amino-8-fluoro-1,1-dioxo-7-[6-(2,2,2-trifluoroethoxy)pyridazin-4-yl]-5-[[4-[5-(trifluoromethyl)-1,2,4-oxadiazol-3-yl]phenyl]methyl]-2,3-dihydro-1λ6,5-benzothiazepin-4-one] | 103 % activation | 298 nM | 154 % activation |  |
| 1400 nM | 13400 nM | 7560 nM |  | CC(C)(C)c1cc(-c2cc3c(cc2F)S(=O)(=O)C[C@H](N)C(=O)N3Cc2ccc(-c3noc(C(F)(F)F)n3)cc2)cnn1 [Example 34, (3R)-3-amino-7-(6-tert-butylpyridazin-4-yl)-8-fluoro-1,1-dioxo-5-[[4-[5-(trifluoromethyl)-1,2,4-oxadiazol-3-yl]phenyl]methyl]-2,3-dihydro-1λ6,5-benzothiazepin-4-one] | 127 % activation | 361 nM | 96 % activation |  |
|  | 19900 nM | 17200 nM | 3130 nM | CC(C)(C)c1cc(-c2cc3c(cc2F)S(=O)(=O)C[C@@H](N)C(=O)N3Cc2ccc(-c3noc(C(F)(F)F)n3)cc2)cnn1 [Example 35] | 132 % activation |  | 480 % activation | 1040 nM |
| 1560 nM | 24500 nM | 1500 nM |  | CC(C)(C)c1nncc(-c2cc3c(cc2F)S(=O)(=O)C[C@H](N)C(=O)N3Cc2ccc(-c3noc(C(F)(F)F)n3)cc2)n1 [Example 36, (3R)-3-amino-8-fluoro-1,1-dioxo-7(3R)-3-amino-7-(3-tert-butyl-1,2,4-triazin-5-yl)-8-fluoro-1,1-dioxo-5-[[4-[5-(trifluoromethyl)-1,2,4-oxadiazol-3-yl]phenyl]methyl]-2,3-dihydro-1λ6,5-benzothiazepin-4-one] | 108 % activation | 1350 nM | 88 % activation |  |
